# Test results as given in the supplement of paper PMC10307832.
# Columns and labels:
# Assay in all cases: relative viability (nuclei count vs DMSO), 5 days (fraction); higher = more cells survive
# Lapatinib + Navitoclax = compound: CS(=O)(=O)CCNCc1ccc(-c2ccc3ncnc(Nc4ccc(OCc5cccc(F)c5)c(Cl)c4)c3c2)o1 [Lapatinib] + CC1(C)CCC(c2ccc(Cl)cc2)=C(CN2CCN(c3ccc(C(=O)NS(=O)(=O)c4ccc(N[C@H](CCN5CCOCC5)CSc5ccccc5)c(S(=O)(=O)C(F)(F)F)c4)cc3)CC2)C1 [Navitoclax] (partner 0.5 µM)
# Outline: (§1)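 Relative viability equals treated-well nuclei counts divided by vehicle-well nuclei counts. Counts came from 4× images of lung cancer cell lines grown in 1536-well plates for 5 days after pin-tool dosing on the day after seeding. Dosing used one drug alone or a fixed anchor-drug dose plus five library-drug doses (not always all listed) in √10 steps, and values are medians of duplicate plates.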
# Lapatinib + Alpelisib = compound: CS(=O)(=O)CCNCc1ccc(-c2ccc3ncnc(Nc4ccc(OCc5cccc(F)c5)c(Cl)c4)c3c2)o1 [Lapatinib] + Cc1nc(NC(=O)N2CCC[C@H]2C(N)=O)sc1-c1ccnc(C(C)(C)C(F)(F)F)c1 [Alpelisib] (partner 2 µM)
# Outline: as §1
# Lapatinib + OSI-027 = compound: CS(=O)(=O)CCNCc1ccc(-c2ccc3ncnc(Nc4ccc(OCc5cccc(F)c5)c(Cl)c4)c3c2)o1 [Lapatinib] + COc1cccc2cc(-c3nc([C@H]4CC[C@H](C(=O)O)CC4)n4ncnc(N)c34)[nH]c12 [OSI-027] (partner 0.5 µM)
# Outline: as §1
# Wnt-C59 + Alpelisib = compound: CC1=NC=CC(=C1)C2=CC=C(C=C2)CC(=O)NC3=CC=C(C=C3)C4=CN=CC=C4 [Wnt-C59] + Cc1nc(NC(=O)N2CCC[C@H]2C(N)=O)sc1-c1ccnc(C(C)(C)C(F)(F)F)c1 [Alpelisib] (partner 2 µM)
# Outline: as §1
Cell Line,relative viability (Lapatinib + Navitoclax; first compound 0.06325 µM),relative viability (Lapatinib + Navitoclax; first compound 0.2 µM),relative viability (Lapatinib + Navitoclax; first compound 0.6325 µM),relative viability (Lapatinib + Navitoclax; first compound 2 µM),relative viability (Lapatinib + Alpelisib; first compound 0.06325 µM),relative viability (Lapatinib + Alpelisib; first compound 0.2 µM),relative viability (Lapatinib + Alpelisib; first compound 0.6325 µM),relative viability (Lapatinib + Alpelisib; first compound 2 µM),relative viability (Lapatinib + OSI-027; first compound 0.06325 µM),relative viability (Lapatinib + OSI-027; first compound 0.2 µM),relative viability (Lapatinib + OSI-027; first compound 0.6325 µM),relative viability (Lapatinib + OSI-027; first compound 2 µM),relative viability (Wnt-C59 + Alpelisib; first compound 0.001 µM),relative viability (Wnt-C59 + Alpelisib; first compound 0.01 µM),relative viability (Wnt-C59 + Alpelisib; first compound 0.03162 µM),relative viability (Wnt-C59 + Alpelisib; first compound 0.1 µM),relative viability (Lapatinib + Navitoclax; first compound 0.02 µM),relative viability (Lapatinib + Alpelisib; first compound 0.02 µM),relative viability (Lapatinib + OSI-027; first compound 0.02 µM)
LC-2-ad,0.415,0.446,0.394,0.264,0.796,0.856,0.877,0.73,0.49,0.767,0.764,0.619,0.824,0.846,0.953,0.778,,,
HCC-827,0.944,1.08,0.974,0.981,0.957,0.957,0.914,0.434,0.7,0.691,0.71,0.661,0.993,0.979,0.971,0.966,1,0.89,0.54
SK-LU-1,0.831,0.747,0.876,1.29,0.953,0.99,1.1,0.977,0.219,0.286,0.353,0.324,0.996,0.992,1.08,1.05,,,0.292
HCC-366,1.02,1.08,1.03,0.914,0.282,0.381,0.446,0.242,0.58,0.838,0.859,0.373,0.453,0.287,0.412,0.297,,,
EPLC-272H,1.13,0.869,0.991,0.961,0.807,0.819,0.746,0.821,,0.256,0.227,0.224,0.96,0.861,0.976,0.921,,,
NCI-H322M,1.07,1.09,1.16,1.09,0.669,0.808,0.73,0.773,0.374,0.571,0.46,0.431,0.747,0.715,0.718,0.478,1.25,0.776,0.591
NCI-H1944,,0.885,0.864,0.789,,0.645,0.647,0.488,0.237,0.356,0.361,0.31,0.767,0.755,0.785,0.755,,,0.28
NCI-H2228,0.807,0.809,1.28,0.912,0.688,0.811,0.907,0.59,0.36,0.482,0.568,0.478,0.816,0.74,0.929,0.751,0.838,0.675,0.395
NCI-H1755,1.02,0.97,1.01,0.936,0.873,0.915,0.888,0.789,0.567,0.653,0.696,0.697,0.932,0.891,0.907,0.908,0.974,0.906,0.423
NCI-H2170,0.393,0.287,0.218,0.184,0.551,0.477,0.376,0.21,0.459,0.64,0.41,0.245,0.813,0.675,0.987,0.841,0.546,0.76,0.459
LXF-289,0.928,0.957,0.94,0.85,1.04,1.06,0.987,0.922,0.477,0.796,0.714,0.723,1.05,1.03,1.04,1.02,0.901,0.987,0.16
LCLC-97TM1,,0.355,0.327,0.33,,0.232,0.284,0.257,,0.564,0.497,0.503,0.268,0.256,0.19,0.2,,,
NCI-H2347,0.807,0.826,0.731,0.769,1.01,1.07,0.844,1.02,0.266,0.462,0.44,0.366,0.936,1.01,0.9,0.984,0.548,0.901,
PC-3 [JPC-3],0.797,0.779,0.885,0.689,1.04,1.02,0.988,0.585,0.624,0.725,0.756,0.565,1.02,1.05,1.04,1.07,,,0.73
H3255,0.512,0.37,0.464,0.111,0.506,0.643,0.635,0.232,0.524,0.505,0.431,0.236,0.798,0.556,0.68,0.596,0.476,0.591,0.577
HOP-62,0.993,1.09,1.1,0.99,0.618,0.861,1.14,0.856,0.756,0.89,0.866,0.914,1.13,0.919,1.1,0.644,0.672,,0.486

Cell Line,relative viability (Lapatinib + Navitoclax; first compound 0.06325 µM),relative viability (Lapatinib + Navitoclax; first compound 0.2 µM),relative viability (Lapatinib + Navitoclax; first compound 0.6325 µM),relative viability (Lapatinib + Navitoclax; first compound 2 µM),relative viability (Lapatinib + Alpelisib; first compound 0.06325 µM),relative viability (Lapatinib + Alpelisib; first compound 0.2 µM),relative viability (Lapatinib + Alpelisib; first compound 0.6325 µM),relative viability (Lapatinib + Alpelisib; first compound 2 µM),relative viability (Lapatinib + OSI-027; first compound 0.06325 µM),relative viability (Lapatinib + OSI-027; first compound 0.2 µM),relative viability (Lapatinib + OSI-027; first compound 0.6325 µM),relative viability (Lapatinib + OSI-027; first compound 2 µM),relative viability (Wnt-C59 + Alpelisib; first compound 0.001 µM),relative viability (Wnt-C59 + Alpelisib; first compound 0.01 µM),relative viability (Wnt-C59 + Alpelisib; first compound 0.03162 µM),relative viability (Wnt-C59 + Alpelisib; first compound 0.1 µM),relative viability (Lapatinib + Navitoclax; first compound 0.02 µM),relative viability (Lapatinib + Alpelisib; first compound 0.02 µM),relative viability (Lapatinib + OSI-027; first compound 0.02 µM)
LK-2,,0.84,0.88,0.905,,0.938,1.13,1.01,,0.228,0.238,0.228,1.29,1.06,1.03,0.68,0.908,,0.217
NCI-H441,0.223,0.94,0.514,0.604,0.65,0.68,0.617,0.799,0.34,0.53,0.559,0.617,0.797,0.687,0.809,0.583,,,
PC-14,0.991,0.958,0.985,0.839,0.915,0.883,0.864,0.783,0.743,0.824,0.794,0.152,1.01,0.92,0.995,0.934,0.956,0.823,0.464
EMC-BAC-2,0.984,1.09,1.02,0.968,0.652,0.694,0.622,0.592,0.277,0.377,0.392,0.346,0.684,0.607,0.672,0.65,1.05,0.72,0.339
NCI-H2087,0.96,1.06,1,0.962,1.06,1.21,1.01,0.931,0.259,0.547,0.527,0.489,1.18,1.05,0.996,1.05,0.932,1.12,
NCI-H1355,0.861,0.824,0.906,0.498,0.621,0.734,0.762,0.416,0.216,0.342,0.367,0.268,1.01,0.746,0.801,0.733,,,
SK-MES-1,,1.25,0.783,0.573,,0.709,0.629,0.33,0.453,0.6,0.578,0.256,0.841,0.909,0.833,0.965,1.13,0.698,0.472
NCI-H1793,,,0.329,0.292,,,0.563,0.384,0.143,0.235,0.167,0.16,0.827,0.536,0.898,0.668,,,
COR-L23,0.938,1.09,0.887,0.854,0.602,0.871,0.752,0.688,0.651,0.769,0.721,0.654,0.776,0.752,0.775,0.725,0.943,0.694,0.771
HCC-15,0.679,0.704,0.635,0.599,0.799,0.843,0.857,0.797,0.386,0.682,0.727,0.612,0.962,0.952,0.904,0.868,,,
NCI-H2023,0.885,0.894,1,0.77,0.576,0.528,0.553,0.378,,0.337,0.382,0.177,0.627,0.622,0.656,0.508,0.95,0.53,0.379
NCI-H1792,0.589,0.52,0.586,0.645,0.633,0.75,0.666,0.576,,0.558,0.533,0.31,0.707,0.693,0.806,0.785,0.615,0.723,0.665
HARA,1.18,1.15,1.08,0.938,0.573,0.593,0.625,0.288,0.214,0.474,0.328,0.239,0.773,0.645,0.959,0.787,1.13,0.739,
EKVX,0.916,0.809,0.77,0.199,0.675,0.845,0.575,0.212,0.502,0.575,0.58,0.325,0.931,0.783,0.73,0.668,0.859,0.869,0.594
HCC-78,0.651,0.752,0.57,0.699,0.277,0.305,0.26,0.15,0.324,0.315,0.381,0.344,0.298,0.336,0.333,0.363,,,
